Measurements from article PMC10518257 (Nature Cancer, 2023).
Several values for one entry are separate records, joined by “and”; a condition that tells them apart may be missing. Identical values can stand only once. Like-named read-outs stand apart in the source and are kept apart here.

Tests used:
Ba/F3-CCDC6::RET^S904F = test: Growth inhibition assay in Ba/F3 cells (CellTiter-Glo, 72 h); assay type: cell-based
Ba/F3-RET^M918T = test: as above; assay type: cell-based; conditions: Mus musculus, BaF3, 72 h, read-out: GI50 value (Mean ± SD), Ba/F3-RET^M918T, CellTiter-Glo, 72 h
ECLC5B cells = test: Growth inhibition (alamarBlue, 96 h); assay type: cell-based, human; conditions: for raw viability signal (Source Data Fig. 3b-c): ECLC5B, replicates
LUAD-0057BS1 cells = test: Growth inhibition (alamarBlue, 96 h); assay type: cell-based, human; conditions: for raw viability signal (Source Data Fig. 3b-c): LUAD-0057BS1, replicate sets
TT cells = test: Growth inhibition (alamarBlue, 96 h); assay type: cell-based, human; conditions: for raw viability signal (Source Data Fig. 3b-c): replicate sets
[1] = tested on: Ba/F3 KIF5B–RET^WT allograft tumors; test: Subcutaneous allograft efficacy study; assay type: in vivo, BALB/c nude mice
TT cells (RET C634W) = test: Dose-response western blotting, EC50 for inhibition of protein phosphorylation; assay type: cell-based; conditions: Homo sapiens
LUAD-0087AS2 cells = test: Growth inhibition (alamarBlue, 96 h); assay type: cell-based, human; conditions: for raw viability signal (Source Data Fig. 3b-c): LUAD-0087AS2, replicate sets
[2] = Homo sapiens, 96 h, read-out: IC50 for Inhibition of Growth (95% CI)

COCc1ccc(NC(=O)c2c(C#CCN3CCOCC3)n(C3(C)CC3)c3ncnc(N)c23)cc1 [Vepafestinib, 4-amino-N-[4-(methoxymethyl)phenyl]-7-(1-methylcyclopropyl)-6-[3-(morpholin-4-yl)prop-1-yn-1-yl]-7H-pyrrolo[2,3-d]pyrimidine-5-carboxamide]
GI50 (Ba/F3-CCDC6::RET^S904F; Mus musculus, BaF3, 72 h, read-out: GI50 value (Mean ± SD), Ba/F3-CCDC6::RET^S904F, CellTiter-Glo, 72 h): 24.7 ± 5 nM | GI50 (Ba/F3-CCDC6::RET^S904F; read-out: GI50 values, Ba/F3-CCDC6::RET S904F, individual sets (replicate experiments)): 26.7 nM and 19.1 nM | GI50 (Ba/F3-RET^M918T): 1.94 ± 0.88 nM | raw viability signal (Source Data Fig. 3b-c) (ECLC5B cells; 0.01 nM): 9826.46 and 7916.25 and 19010.8 | raw viability signal (Source Data Fig. 3b-c) (ECLC5B cells; 0.1 nM): 10351 and 8612.52 and 20662.3 | raw viability signal (Source Data Fig. 3b-c) (ECLC5B cells; 1 nM): 10751.4 and 8385.29 and 18478.3 | raw viability signal (Source Data Fig. 3b-c) (ECLC5B cells; 10 nM): 4019.62 and 1873.82 and 8615.92 | raw viability signal (Source Data Fig. 3b-c) (ECLC5B cells; 100 nM): 3307.08 and 1329.05 and 4450.27 | raw viability signal (Source Data Fig. 3b-c) (ECLC5B cells; 1000 nM): 2927.89 and 1305.13 and 4874.13 | raw viability signal (Source Data Fig. 3b-c) (ECLC5B cells; 10000 nM): 1756.2 and 2012.52 and 6114.45 | IC50 (ECLC5B cells; [2]): 7 nM | IC50 (LUAD-0057BS1 cells; [2]): 60 nM | raw viability signal (Source Data Fig. 3b-c) (LUAD-0057BS1 cells; 0.01 nM): 17419.2 and 15925.4 and 18689.8 and 23015.1 | raw viability signal (Source Data Fig. 3b-c) (LUAD-0057BS1 cells; 0.1 nM): 17721.3 and 15866.4 and 19298.6 and 21993.3 | raw viability signal (Source Data Fig. 3b-c) (LUAD-0057BS1 cells; 1 nM): 17137.9 and 16657.5 and 19117.5 and 21130.9 | raw viability signal (Source Data Fig. 3b-c) (LUAD-0057BS1 cells; 10 nM): 14331 and 15273.4 and 17077.7 and 19439.8 | raw viability signal (Source Data Fig. 3b-c) (LUAD-0057BS1 cells; 100 nM): 7158.2 and 6135.51 and 7993.83 and 7600.63 | raw viability signal (Source Data Fig. 3b-c) (LUAD-0057BS1 cells; 1000 nM): 3333.45 and 1678.22 and 2095.91 and 2070.83 | raw viability signal (Source Data Fig. 3b-c) (LUAD-0057BS1 cells; 10000 nM): 2605.9 and 881.24 and 1045.29 and 1424.56 | raw viability signal (Source Data Fig. 3b-c) (TT cells; 0.01 nM): 22992.9 and 26706 and 26833.9 and 13728.7 and 29403.6 | raw viability signal (Source Data Fig. 3b-c) (TT cells; 0.1 nM): 22728 and 26400.4 and 33154.7 and 10987.6 and 26655.8 | raw viability signal (Source Data Fig. 3b-c) (TT cells; 1 nM): 22046.8 and 26424.3 and 31146.9 and 10280.3 and 23063 | raw viability signal (Source Data Fig. 3b-c) (TT cells; 10 nM): 18366.2 and 23539.3 and 23168.9 and 8667.42 and 19947.5 | raw viability signal (Source Data Fig. 3b-c) (TT cells; 100 nM): 10434.7 and 14002.8 and 12336.3 and 4688.9 and 15375.8 | raw viability signal (Source Data Fig. 3b-c) (TT cells; 1000 nM): 10759 and 11509.2 and 9437.03 and 4745.5 and 14900.8 | raw viability signal (Source Data Fig. 3b-c) (TT cells; 10000 nM): 11538.8 and 12388.7 and 14343.9 and 2691.86 and 17063 | IC50 (TT cells; [2]): 24 nM | Tumor Volume Mean ([1]; Ba/F3-KIF5B::RET, 50 mg/kg BID, Day 1, Ext. Data Fig. 9a): 153.20 mm3 | Tumor Volume Mean ([1]; Ba/F3-KIF5B::RET, 50 mg/kg BID, Day 1, Ext. Data Fig. 9b): 219.73 mm3 | Tumor Volume Mean ([1]; Ba/F3-KIF5B::RET, 50 mg/kg BID, Day 4, Ext. Data Fig. 9a): 87.32 mm3 | Tumor Volume Mean ([1]; Ba/F3-KIF5B::RET, 50 mg/kg BID, Day 4, Ext. Data Fig. 9b): 116.10 mm3 | Tumor Volume Mean ([1]; Ba/F3-KIF5B::RET, 50 mg/kg BID, Day 8, Ext. Data Fig. 9a): 98.53 mm3 | Tumor Volume Mean ([1]; Ba/F3-KIF5B::RET, 50 mg/kg BID, Day 8, Ext. Data Fig. 9b): 190.23 mm3 | Tumor Volume Mean ([1]; Ba/F3-KIF5B::RET, 50 mg/kg BID, Day 11, Ext. Data Fig. 9a): 80.59 mm3 | Tumor Volume Mean ([1]; Ba/F3-KIF5B::RET, 50 mg/kg BID, Day 11, Ext. Data Fig. 9b): 68.61 mm3 | Tumor Volume Mean ([1]; Ba/F3-KIF5B::RET, 50 mg/kg BID, Day 15, Ext. Data Fig. 9a): 80.54 mm3 | Tumor Volume Mean ([1]; Ba/F3-KIF5B::RET, 50 mg/kg BID, Day 15, Ext. Data Fig. 9b): 131.30 mm3 | Tumor Volume Mean ([1]; Fig. 7a Ba/F3-KIF5B::RET, 25 mg/kg BID, day 0, in mm³ (unit assumed)): 186.18 | Tumor Volume Mean ([1]; Fig. 7a Ba/F3-KIF5B::RET, 25 mg/kg BID, day 4, in mm³ (unit assumed)): 191.92 | Tumor Volume Mean ([1]; Fig. 7a Ba/F3-KIF5B::RET, 25 mg/kg BID, day 8, in mm³ (unit assumed)): 184.92 | Tumor Volume Mean ([1]; Fig. 7a Ba/F3-KIF5B::RET, 25 mg/kg BID, day 11, in mm³ (unit assumed)): 174.38 | Tumor Volume Mean ([1]; Fig. 7a Ba/F3-KIF5B::RET, 25 mg/kg BID, day 15, in mm³ (unit assumed)): 165.09 | Tumor Volume Mean ([1]; Fig. 7a Ba/F3-KIF5B::RET, 50 mg/kg BID, day 0, in mm³ (unit assumed)): 187.80 | Tumor Volume Mean ([1]; Fig. 7a Ba/F3-KIF5B::RET, 50 mg/kg BID, day 4, in mm³ (unit assumed)): 184.99 | Tumor Volume Mean ([1]; Fig. 7a Ba/F3-KIF5B::RET, 50 mg/kg BID, day 8, in mm³ (unit assumed)): 148.12 | Tumor Volume Mean ([1]; Fig. 7a Ba/F3-KIF5B::RET, 50 mg/kg BID, day 11, in mm³ (unit assumed)): 106.67 | Tumor Volume Mean ([1]; Fig. 7a Ba/F3-KIF5B::RET, 50 mg/kg BID, day 15, in mm³ (unit assumed)): 83.29 | EC50 (TT cells (RET C634W); read-out: EC50 for Inhibition of Protein Phosphorylation (95% CI), AKT S473, 2 h, densitometry): 2.4 nM | EC50 (TT cells (RET C634W); read-out: EC50 for Inhibition of Protein Phosphorylation (95% CI), ERK1/2 T202/Y204, 2 h, densitometry): 0.3 nM | EC50 (TT cells (RET C634W); read-out: EC50 for Inhibition of Protein Phosphorylation (95% CI), MEK1/2 S217/S221, 2 h, densitometry): 2.1 nM | EC50 (TT cells (RET C634W); read-out: EC50 for Inhibition of Protein Phosphorylation (95% CI), P70 RSK T421/S424, 2 h, densitometry): 1.1 nM | EC50 (TT cells (RET C634W); read-out: EC50 for Inhibition of Protein Phosphorylation (95% CI), RET Y905, 2 h, densitometry): 0.3 nM | EC50 (TT cells (RET C634W); read-out: EC50 for Inhibition of Protein Phosphorylation (95% CI), S6RP S235/S236, 2 h, densitometry): 0.7 nM | IC50 (LUAD-0087AS2 cells; [2]): 52 nM | raw viability signal (Source Data Fig. 3b-c) (LUAD-0087AS2 cells; 0.01 nM): 11228 and 14615.9 and 14016.7 and 14250.8 | raw viability signal (Source Data Fig. 3b-c) (LUAD-0087AS2 cells; 0.1 nM): 11523.4 and 15236.1 and 13636.1 and 15169.5 | raw viability signal (Source Data Fig. 3b-c) (LUAD-0087AS2 cells; 1 nM): 9899.07 and 15123.8 and 13931.5 and 14165.7 | raw viability signal (Source Data Fig. 3b-c) (LUAD-0087AS2 cells; 10 nM): 10547.8 and 8202.29 and 13996.8 and 13713.3 | raw viability signal (Source Data Fig. 3b-c) (LUAD-0087AS2 cells; 100 nM): 5765.45 and 5334.21 and 3421.1 and 4734.04 | raw viability signal (Source Data Fig. 3b-c) (LUAD-0087AS2 cells; 1000 nM): 2843.25 and 5162.03 and 1552.19 and 1343.68 | raw viability signal (Source Data Fig. 3b-c) (LUAD-0087AS2 cells; 10000 nM): 1385.86 and 3882.23 and 977.192 and 943.954
